Test results published in patent publication US12071424B2, “IRE1 small molecule inhibitors” (Cornell University, priority 2017, dated 2024).

What was measured:
IRE1a [1] = biological target: T1, IRE1a (Homo sapiens, UniProt O75460); assay: In vitro FRET assay (IRE1a cleavage of XBP1 RNA probe); assay type: biochemical; conditions: 2 nM SignalChem IRE1a, tested as Formic Acid Salt (37: HCl Salt)
T1 construct: purchased SignalChem
In short: Human

IRE1a [2] = assay: IRE1a Endoribonuclease Nanoluciferase Assay (XBP1 luciferase reporter in 293T cells); assay type: cell-based, human; conditions: ER stressor, tested as Formic Acid Salt (37: HCl Salt)
Description: Compounds disclosed herein assessed for disruption of IRE1 signaling using a IRE1a Endoribonuclease Nanoluciferase Assay. Briefly, 25×10^5 293T cells were seeded in a 10 cm^2 tissue culture plate. About 24 hours later, the cells were transfected with Effectene. In a 15 mL tube, the following was added: 2 ug XBP1 luciferase reporter plasmid (PGK-Luc2-P2A-XBP1u-Nanoluciferase-Pest); 300 ul EC buffer; and 16 ul Enhancer, followed by incubation at room temp for 5 minutes. Next, 60 ul Effectene (Qiagen 301427) was added, followed by incubation at room temperature for 10 minutes. 2.6 mL cDMEM media was added. Old media was aspirated from the cells, followed by addition of 7 mL fresh media. Full transfection mixture was added dropwise to cells. Cells were incubated for 6 hours, followed by trypsinization, centrifugation and resuspension in 11 mL fresh cDMEM media. 100 uL of cells were plated per a well in a 96 well plate. A day later, ER stressors of choice +/−inhibitors were added. To harvest, media was aspirated from cells completely, then 50 uL 1× passive lysis buffer (Promega: E1941) was added per well and put on shaker (300 rpm) for 30 minutes at room temperature. Cells were centrifuged, and 15 uL sample per well was added to a new, opaque white 384 well plate (Corning 3570). 15 uL OneGlo (nanoluciferase kit, Promega N1630) was added. Plates were spun down, placed on shaker (300 rpm) for 10 minutes. Plates were read on luminometer, 1000 ms integration time per well. 15 uL Stop an Glo (nanoluciferase kit) was added. Plates were spun down, placed on shaker (300 rpm) for 10 minutes. Plates were read on luminometer, 1000 ms second integration time per well. Recordings are provided below in Table 4.

T1 sequence (O75460 19-977): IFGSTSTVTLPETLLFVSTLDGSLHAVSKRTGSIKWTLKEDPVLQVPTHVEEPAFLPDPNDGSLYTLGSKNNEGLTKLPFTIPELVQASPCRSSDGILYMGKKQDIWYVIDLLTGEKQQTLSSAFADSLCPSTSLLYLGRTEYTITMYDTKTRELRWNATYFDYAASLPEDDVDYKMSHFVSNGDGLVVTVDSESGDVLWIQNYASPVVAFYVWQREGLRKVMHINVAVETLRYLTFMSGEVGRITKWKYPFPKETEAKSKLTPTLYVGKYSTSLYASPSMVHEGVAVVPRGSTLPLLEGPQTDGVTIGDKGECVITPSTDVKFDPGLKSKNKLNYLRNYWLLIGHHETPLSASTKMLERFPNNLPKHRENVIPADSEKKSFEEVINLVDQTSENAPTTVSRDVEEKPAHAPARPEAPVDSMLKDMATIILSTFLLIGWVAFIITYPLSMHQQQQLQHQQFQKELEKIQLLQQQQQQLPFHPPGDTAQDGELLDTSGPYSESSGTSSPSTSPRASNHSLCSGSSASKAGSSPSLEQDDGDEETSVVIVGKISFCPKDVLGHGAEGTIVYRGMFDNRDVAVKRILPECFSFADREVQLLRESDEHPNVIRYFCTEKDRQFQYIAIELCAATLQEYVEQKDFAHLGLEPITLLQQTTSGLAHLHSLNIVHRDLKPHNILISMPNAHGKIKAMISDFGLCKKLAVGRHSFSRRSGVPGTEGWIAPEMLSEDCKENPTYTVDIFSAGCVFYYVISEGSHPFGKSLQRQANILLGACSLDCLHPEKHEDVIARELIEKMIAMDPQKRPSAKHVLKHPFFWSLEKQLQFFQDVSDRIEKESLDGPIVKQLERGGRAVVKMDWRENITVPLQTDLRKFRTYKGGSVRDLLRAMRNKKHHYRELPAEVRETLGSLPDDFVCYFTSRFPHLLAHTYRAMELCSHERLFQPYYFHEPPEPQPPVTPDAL

SMILES	IC50 (IRE1a [1]) [nM]	EC50 (IRE1a [2]; Homo sapiens, HEK-293T) [nM]	EC50 (IRE1a [2]) [nM]
CCc1cc(-c2ccc(NS(=O)(=O)c3ccccc3Cl)c(F)c2)cc2cnc(N[C@H]3CC4C[C@H](N)CC4C3)nc12 (some centres unmarked) [Compound 83]	5 to 50	–	50 to 100
CCc1cc(-c2ccc(NS(=O)(=O)c3ccccc3Cl)c(F)c2)cc2cnc(N[C@H]3CC[C@H](NC(C)=O)CC3)nc12 [Compound 59]	5 to 50	50 to 100	–
CCCc1cc(-c2cc(NS(=O)(=O)c3ccccc3Cl)nn2C)cc2cnc(N[C@H]3CC[C@H](N)CC3)nc12 [Compound 47, N-(5-(2-(((1r,4r)-4-aminocyclohexyl)amino)-8-propylquinazolin-6-yl)-1-methyl-1H-pyrazol-3-yl)-2-chlorobenzene-sulfonamide]	≤ 5	5 to 50	–
N[C@H]1CC[C@H](Nc2ncc3cc(-c4c(F)cc(NS(=O)(=O)c5ccccc5Cl)cc4F)ccc3n2)CC1 [Compound 62, N-(4-(2-(((1r,4r)-4-aminocyclohexyl)amino)quinazolin-6-yl)-3,5-difluorophenyl)-chlorobenzene-sulfonamide]	≤ 5	5 to 50	–
CCc1cc(-c2ccc(NS(=O)(=O)c3ccccc3Cl)c(F)c2)cc2cnc(N[C@@H]3CC[C@@H](N)C3)nc12 [Compound 78, N-(4-(2-(((1R,3R)-3-aminocyclopentyl)amino)-8-ethylquinazolin-6-yl)-2-fluorophenyl)-2-chlorobenzene-sulfonamide]	≤ 5	≤ 5	–
N[C@H]1CC[C@H](Nc2ncc3cc(-c4ccc(NS(=O)(=O)c5ccccc5Cl)cc4)ccc3n2)CC1 [Compound 26, N-(4-(2-(((1r,4r)-4-aminocyclohexyl)amino)quinazolin-6-yl)phenyl)-2-chlorobenzene-sulfonamide]	≤ 5	≤ 5	–
N[C@H]1CC2C[C@@H](Nc3ncc4cc(-c5ccc(NS(=O)(=O)c6ccccc6Cl)c(F)c5)ccc4n3)CC2C1 (some centres unmarked) [Compound 85, N-(4-(2-(((2s,5s)-5-aminooctahydro-pentalen-2-yl)amino)quinazolin-6-yl)-2-fluorophenyl)-2-chlorobenzene-sulfonamide]	≤ 5	100 to 10000	–
CCc1cc(-c2ccc(NS(=O)(=O)c3ccccc3Cl)c(F)c2)cc2cnc(N[C@@H]3CCC[C@H](N)C3)nc12 [Compound 72, N-(4-(2-(((1R,3S)-3-aminocyclohexyl)amino)-8-ethylquinazolin-6-yl)-2-fluorophenyl)-2-chlorobenzene-sulfonamide]	≤ 5	100 to 10000	–
N[C@H]1CC[C@H](Nc2ncc3cc(-c4ncc(NS(=O)(=O)c5ccccc5Cl)cc4F)ccc3n2)CC1 [Compound 51, N-(6-(2-(((1r,4r)-4-aminocyclohexyl)amino)quinazolin-6-yl)-5-fluoropyridin-3-yl)-2-chlorobenzene-sulfonamide]	≤ 5	50 to 100	–
N[C@H]1CC[C@H](Nc2ncc3cc(-c4ccc(NS(=O)(=O)c5ccccc5Cl)cc4F)ccc3n2)CC1 [Compound 48, N-(4-(2-(((1r,4r)-4-amiocyclohexyl)amino)quinazolin-6-yl)-3-fluorophenyl)-2-chlorobenzene-sulfonamide]	≤ 5	5 to 50	–
N[C@H]1CC[C@H](Nc2ncc3cc(-c4nnc(NS(=O)(=O)c5ccccc5Cl)s4)ccc3n2)CC1 [Compound 89, N-(5-(2-(((1r,4r)-4-aminocyclohexyl)amino)quinazolin-6-yl)-1,3,4-thiadiazol-2-yl)-2-chlorobenzene-sulfonamide]	≤ 5	100 to 10000	–

Second part, the molecule after the results:

IC50 (IRE1a [1]) [nM]	EC50 (IRE1a [2]; Homo sapiens, HEK-293T) [nM]	EC50 (IRE1a [2]) [nM]	SMILES
≤ 5	≤ 5	–	CCc1cc(-c2ccc(NS(=O)(=O)c3ccccc3Cl)nc2C)cc2cnc(N[C@H]3CC[C@H](NC)CC3)nc12 [Compound 122, 2-chloro-N-(5-(8-ethyl-2-(((1r,4r)-4-(methylamino)cyclohexyl)amino)quinazolin-6-yl)-6-methylpyridin-2-yl)benzenesulfonamide]
≤ 5	≤ 5	–	CCc1cc(-c2cnc(NS(=O)(=O)c3ccccc3Cl)nc2OC)cc2cnc(N[C@H]3CC[C@H](N(C)C)CC3)nc12 [Compound 154, 2-chloro-N-(5-(2-(((1r,4r)-4-(dimethylamino)cyclohexyl)amino)-8-ethylquinazolin-6-yl)-4-methoxypyrimidin-2-yl)benzenesulfonamide]
≤ 5	≤ 5	–	CCc1c(F)c(-c2cc(F)c(NS(=O)(=O)c3ccccc3Cl)nc2C)cc2cnc(N[C@H]3CC[C@H](N(C)C)CC3)nc12 [Compound 162, 2-chloro-N-(5-(2-(((1r,4r)-4-(dimethylamino)cyclohexyl)amino)-8-ethyl-7-fluoroquinazolin-6-yl)-3-fluoro-6-methylpyridin-2-yl)benzenesulfonamide]
≤ 5	≤ 5	–	COc1nc(NS(=O)(=O)c2ccccc2Cl)ccc1-c1cc(F)c2nc(N[C@H]3CC[C@H](N(C)C)CC3)ncc2c1 [Compound 148, 2-chloro-N-(5-(2-(((1r,4r)-4-(dimethylamino)cyclohexyl)amino)-8-fluoroquinazolin-6-yl)-6-methoxypyridin-2-yl)benzenesulfonamide]
≤ 5	≤ 5	–	CCc1cc(-c2ccc(NS(=O)(=O)c3ccccc3Cl)c(F)c2)cc2cnc(N[C@H]3CC[C@H](NC)CC3)nc12 [Compound 60, 2-chloro-N-(4-(8-ethyl-2-(((1r,4r)-4-(methylamino)cyclohexyl)amino)quinazolin-6-yl)-2-fluorophenyl) benzene sulfonamide]
≤ 5	5 to 50	–	CN[C@H]1CC[C@H](Nc2ncc3cc(-c4cc(F)c(NS(=O)(=O)c5ccccc5Cl)nc4OC)ccc3n2)CC1 [Compound 150, 2-chloro-N-(3-fluoro-6-methoxy-5-(2-(((1r,4r)-4-(methylamino)cyclohexyl)amino)quinazolin-6-yl)pyridin-2-yl)benzenesulfonamide]
≤ 5	≤ 5	–	CCc1cc(-c2ccc(NS(=O)(=O)c3ccccc3Cl)nn2)cc2cnc(N[C@H]3CC[C@H](NC)CC3)nc12 [Compound 61, 2-chloro-N-(6-(8-ethyl-2-(((1r,4r)-4-(methylamino)cyclohexyl)amino)quinazolin-6-yl)pyridazin-3-yl)benzene-sulfonamide]
≤ 5	≤ 5	–	CCc1cc(-c2ccc(NS(=O)(=O)c3ccccc3Cl)nc2C)cc2cnc(N[C@H]3CC[C@H](N(C)CC4CCC4)CC3)nc12 [Compound 130, 2-chloro-N-(5-(2-(((1r,4r)-4-((cyclobutylmethyl)(methyl)amino)cyclohexyl)amino)-8-ethylquinazolin-6-yl)-6-methylpyridin-2-yl)benzenesulfonamide]
≤ 5	≤ 5	–	CCc1cc(-c2ccc(NS(=O)(=O)c3ccccc3Cl)nn2)cc2cnc(N[C@H]3CC[C@H](N(C)C)CC3)nc12 [Compound 64]
≤ 5	≤ 5	–	CCc1c(F)c(-c2ccc(NS(=O)(=O)c3ccccc3Cl)nc2C)cc2cnc(N[C@H]3CC[C@H](N(C)C)CC3)nc12 [Compound 161, 2-chloro-N-(5-(2-(((1r,4r)-4-(dimethylamino)cyclohexyl)amino)-8-ethyl-7-fluoroquinazolin-6-yl)-6-methylpyridin-2-yl)benzenesulfonamide]
≤ 5	50 to 100	–	COc1nc(NS(=O)(=O)c2ccccc2Cl)c(F)cc1-c1cc(F)c2nc(N[C@H]3CC[C@H](N(C)C)CC3)ncc2c1 [Compound 155, 2-chloro-N-(5-(2-(((1r,4r)-4-(dimethylamino)cyclohexyl)amino)-8-fluoroquinazolin-6-yl)-3-fluoro-6-methoxypyridin-2-yl)benzenesulfonamide]
≤ 5	≤ 5	–	CCc1cc(-c2ccc(NS(=O)(=O)c3ccccc3Cl)nc2OC)cc2cnc(N[C@H]3CC[C@H](NC)CC3)nc12 [Compound 116, 2-chloro-N-(5-(8-ethyl-2-(((1r,4r)-4-(methylamino)cyclohexyl)amino)quinazolin-6-yl)-6-methoxypyridin-2-yl)benzenesulfonamide]
≤ 5	≤ 5	–	CCc1c(F)c(-c2cc(F)c(NS(=O)(=O)c3ccccc3Cl)nc2OC)cc2cnc(N[C@H]3CC[C@H](N(C)C)CC3)nc12 [Compound 163, 2-chloro-N-(5-(2-(((1r,4r)-4-(dimethylamino)cyclohexyl)amino)-8-ethyl-7-fluoroquinazolin-6-yl)-3-fluoro-6-methoxypyridin-2-yl)benzenesulfonamide]
≤ 5	≤ 5	–	CCc1cc(-c2cc(NS(=O)(=O)c3ccccc3Cl)no2)cc2cnc(N[C@H]3CC[C@H](N)CC3)nc12 [Compound 44, N-(5-(2-(((1r,4r)-4-aminocyclohexyl)amino)-8-ethylquinazolin-6-yl)isoxazol-3-yl)-2-chlorobenzene-sulfonamide]
